According to patent US8134015B2, “Compound inhibiting in vivo phosphorous transport and medicine containing the same” (Kyowa Hakko Kirin Co., Ltd., priority 2003, dated 2012):

What follows are compounds tested against T1, rat NaPi-2b (Rattus norvegicus, UniProt Q9JJ09) (assay: Sodium-dependent phosphate uptake of Xenopus oocytes which expressed NaPi-2b (32P)). Settings: Xenopus oocytes expressing rat NaPi-2b, 32P radioactive phosphorus; read-out: IC50 (phosphate uptake inhibitory activity).
T1 construct: expressed in transfected cells; host or cells: Xenopus oocytes injected with cRNA
T1 sequence (Q9JJ09 1-695): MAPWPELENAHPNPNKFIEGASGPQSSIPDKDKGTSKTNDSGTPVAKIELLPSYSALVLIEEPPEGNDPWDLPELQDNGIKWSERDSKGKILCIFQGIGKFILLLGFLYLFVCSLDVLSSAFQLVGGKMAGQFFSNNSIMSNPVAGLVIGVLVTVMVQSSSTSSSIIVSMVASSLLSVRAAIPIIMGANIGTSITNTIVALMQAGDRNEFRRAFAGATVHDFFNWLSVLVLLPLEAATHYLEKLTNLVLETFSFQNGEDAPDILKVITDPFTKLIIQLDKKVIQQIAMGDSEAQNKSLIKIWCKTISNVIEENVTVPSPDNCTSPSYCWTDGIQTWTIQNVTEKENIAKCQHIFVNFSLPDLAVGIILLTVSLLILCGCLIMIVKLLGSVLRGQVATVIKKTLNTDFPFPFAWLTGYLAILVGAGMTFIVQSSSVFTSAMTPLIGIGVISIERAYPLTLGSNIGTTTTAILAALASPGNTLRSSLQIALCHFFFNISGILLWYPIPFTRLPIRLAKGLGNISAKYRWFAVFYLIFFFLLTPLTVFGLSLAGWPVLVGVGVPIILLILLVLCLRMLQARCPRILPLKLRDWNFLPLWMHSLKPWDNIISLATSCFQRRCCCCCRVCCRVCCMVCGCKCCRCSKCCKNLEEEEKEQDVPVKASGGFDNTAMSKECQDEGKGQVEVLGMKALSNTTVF
Format: cell-based
How it was run: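 Steps: rat NaPi-2b cDNA cloned from small intestine; cRNA made and injected into oocytes; 2-day expression; 32P phosphate uptake with compound; % inhibition at 300/100 μM taken from one curve.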

Row | Compound | IC50 [µM]
1 | Cc1ccc(/C=N/NC(=O)c2cc(Br)ccc2NC(=O)c2ccc(CN3CCN(CCO)CC3)cc2)cc1 [Compound 317, N-[4-Bromo-2-(4-methyl-benzylidene-hydrazinocarbonyl)-phenyl]-4-[4-(2-hydroxy-ethyl)-piperazin-1-ylmethyl]-benzamide] | 5.02
2 | COc1ccc(C(=O)Nc2ccc(C)cc2C(=O)N/N=C/c2cccc(C)c2)cc1OC [Compound 148, 3,4-Dimethoxy-N-[4-methyl-2-(3-methyl-benzylidene-hydrazinocarbonyl)-phenyl]-benzamide] | 15.6
3 | COc1ccccc1/C=N/NC(=O)c1ccccc1NC(=O)c1ccc(OC)c(OC)c1 [Compound 4, 3,4-Dimethoxy-N-[2-(2-methoxy-benzylidene-hydrazinocarbonyl)-phenyl]-benzamide] | 79.9
4 | O=C(Nc1ccc(Cl)cc1C(=O)N/N=C/c1ccc(Cl)c(C(F)(F)F)c1)c1ccccn1 [Compound 364, Pyridin-2-carboxylic acid [4-chloro-2-(4-chloro-3-trifluoromethyl-benzylidene-hydrazinocarbonyl)-phenyl]-amide] | < 1
5 | Cc1cccc(/C=N/NC(=O)c2cc(Br)ccc2NC(=O)c2cccnc2)c1 [Compound 174, N-[4-Bromo-2-(3-methyl-benzylidene-hydrazinocarbonyl)-phenyl]-nicotinamide] | 12.5
6 | CCN(CC)CCN(Cc1cccc(C(=O)Nc2sc3c(c2C(=O)N/N=C/c2ccc(OC)cc2)CCCC3)c1)C(C)=O [Compound 657, 3-{[Acetyl-(2-diethylamino-ethyl)-amino]-methyl}-N-[3-(4-methoxy-benzylidene-hydrazinocarbonyl)-4,5,6,7-tetrahydro-benzo[b]thiophen-2-yl]-benzamide] | 2.63
7 | O=C(Nc1ccc(Br)cc1C(=O)N/N=C/c1ccc(F)cc1)c1cccs1 [Compound 158, Thiophene-2-carboxylic acid [4-bromo-2-(4-fluoro-benzylidene-hydrazinocarbonyl)-phenyl]-amide] | 3.28
8 | O=C(Nc1ccccc1C(=O)N/N=C/c1ccc(F)cc1)c1cccc(F)c1 [Compound 82, 3-Fluoro-N-[2-(4-fluoro-benzylidene-hydrazinocarbonyl)-phenyl]-benzamide] | 6.03
9 | CCN(CC)CCN(C)Cc1cccc(C(=O)Nc2scc(C)c2C(=O)N/N=C/c2ccc(OC)cc2)c1 [Compound 568, 3-{[(2-Diethylamino-ethyl)-methyl-amino]-methyl}-N-[3-(4-methoxy-benzylidene-hydrazinocarbonyl)-4-methyl-thiophen-2-yl]-benzamide] | 4.32
10 | CCN(CC)CCN(C)Cc1ccc(C(=O)Nc2ccc(Br)cc2C(=O)N/N=C/c2ccc(C)c(C)c2)cc1 [Compound 280, N-[4-Bromo-2-(3,4-dimethyl-benzylidene-hydrazinocarbonyl)-phenyl]-4-{[(2-diethylamino-ethyl)-methyl-amino]-methyl}-benzamide] | 0.78
11 | CCN(CC)CCN(C)Cc1cccc(C(=O)Nc2ccc(OCCOCCOC)cc2C(=O)N/N=C/c2cccc(F)c2)c1 [Compound 1033, 3-{[(2-Diethylamino-ethyl)-methyl-amino]-methyl}-N-{2-(3-fluoro-benzylidene-hydrazinocarbonyl)-4-[2-(2-methoxy-ethoxy)-ethoxy]-phenyl}-benzamide] | 18.7
12 | COc1ccc(C(=O)Nc2ccc(Br)cc2C(=O)N/N=C/c2ccccc2C)cc1OC [Compound 30, N-[4-Bromo-2-(2-methyl-benzylidene-hydrazinocarbonyl)-phenyl]-3,4-dimethoxy-benzamide] | 7.86
13 | Cc1ccc(/C=N/n2c(-c3cccc(CSc4nc[nH]n4)c3)nc3sc4c(c3c2=O)CCCC4)cc1C [Compound 646, 3-[(3,4-Dimethyl-benzylidene-)-amino]-2-[3-(1H-[1,2,4]triazol-3-ylsulfanylmethyl)-phenyl]-5,6,7,8-tetrahydro-3H-benzo[4,5]thieno[2,3-d]pyrimidin-4-one] | 1.77
14 | CN(CCO)Cc1ccc(C(=O)Nc2ccc(Cl)cc2C(=O)N/N=C/c2ccc(F)cc2)cc1 [Compound 413, N-[4-Chloro-2-(4-fluoro-benzylidene-hydrazinocarbonyl)-phenyl]-4-{[(2-hydroxy-ethyl)-methyl-amino]-methyl}-benzamide] | < 3
15 | O=C(Nc1ccc(Cl)cc1C(=O)N/N=C/c1cccc(F)c1)c1cccc(CSCc2ccco2)c1 [Compound 680, N-[4-Chloro-2-(3-fluoro-benzylidene-hydrazinocarbonyl)-phenyl]-3-(furan-2-ylmethylsulfanylmethyl)-benzamide] | 4.04
16 | CCN(CCO)Cc1cccc(C(=O)Nc2ccc(Cl)cc2C(=O)N/N=C/c2ccc(Cl)c(C(F)(F)F)c2)c1 [Compound 427, N-[4-Chloro-2-(4-chloro-3-trifluoromethyl-benzylidene-hydrazinocarbonyl)-phenyl]-3-{[ethyl-(2-hydroxy-ethyl)-amino]-methyl}-benzamide] | < 3
17 | COc1ccc(C(=O)Nc2ccccc2C(=O)N/N=C/c2cc(C)ccc2C)cc1OC [Compound 43, N-[2-(2,5-Dimethyl-benzylidene-hydrazinocarbonyl)-phenyl]-3,4-dimethoxy-benzamide] | 20.7
18 | CCN(CC)CCN(C)Cc1cccc(C(=O)Nc2ccc(N3CCCN(C)CC3)cc2C(=O)N/N=C/c2ccc(Cl)c(C(F)(F)F)c2)c1 [Compound 922, N-[2-(4-Chloro-3-trifluoromethyl-benzylidene-hydrazinocarbonyl)-4-(4-methyl-[1,4]diazepan-1-yl)-phenyl]-3-{[(2-diethylamino-ethyl)-methyl-amino]-methyl}-benzamide] | 2.89
19 | COc1ccc(/C=N/NC(=O)c2cc(N3CCCCC3)ccc2NC(=O)c2cccc(CN3CCN(CCO)CC3)c2)cc1 [Compound 869, 3-[4-(2-Hydroxy-ethyl)-piperazin-1-ylmethyl]-N-[2-(4-methoxy-benzylidene-hydrazinocarbonyl)-4-piperidin-1-yl-phenyl]-benzamide] | 6.68
20 | COCCOc1cc(NC(=O)c2cccc(CSCC(O)CO)c2)c(C(=O)N/N=C/c2ccc(C)c(C)c2)cc1OCCOC (centres unmarked) [Compound 1015, 3-(2,3-Dihydroxy-propylsulfanylmethyl)-N-[2-(3,4-dimethyl-benzylidene-hydrazinocarbonyl)-4,5-bis-(2-methoxy-ethoxy)-phenyl]-benzamide] | 11.1
21 | Cc1ccc(/C=N/NC(=O)c2cc(Br)ccc2NC(=O)c2cccc(CSc3ccncc3)c2)cc1 [Compound 198, N-[4-Bromo-2-(4-methyl-benzylidene-hydrazinocarbonyl)-phenyl]-3-(pyridin-4-ylsulfanylmethyl)-benzamide] | 2.71
22 | Cc1cc(C(=O)Nc2ccccc2C(=O)N/N=C/c2cccc(F)c2)c(C)o1 [Compound 514, 2,5-Dimethyl-furan-3-carboxylic acid [2-(3-fluoro-benzylidene-hydrazinocarbonyl)-phenyl]-amide] | 2.15
23 | Cc1ccc(/C=N/NC(=O)c2c(NC(=O)c3cccc(CN(CC(C)O)CC(C)O)c3)sc(C)c2C)cc1C (centres unmarked) [Compound 844, 3-{[Bis-(2-hydroxy-propyl)-amino]-methyl}-N-[3-(3,4-dimethyl-benzylidene-hydrazinocarbonyl)-4,5-dimethyl-thiophen-2-yl]-benzamide] | < 3
24 | CCN(CC)CCNCc1cccc(C(=O)Nc2sc3c(c2C(=O)N/N=C/c2cccc(F)c2)CCC3)c1 [Compound 812, 3-[(2-Diethylamino-ethylamino)-methyl]-N-[3-(3-fluoro-benzylidene-hydrazinocarbonyl)-5,6-dihydro-4H-cyclopenta[b]thiophen-2-yl]-benzamide] | 5.58
25 | Cc1csc(NC(=O)c2cccc(CSc3nc[nH]n3)c2)c1C(=O)N/N=C/c1ccc(F)cc1 [Compound 553, N-[3-(4-Fluoro-benzylidene-hydrazinocarbonyl)-4-methyl-thiophen-2-yl]-3-(1H-[1,2,4]triazol-3-ylsulfanylmethyl)-benzamide] | 2.8
26 | Cc1ccc(/C=N/NC(=O)c2ccsc2NC(=O)c2cccc(CSCCCO)c2)cc1C [Compound 658, N-[3-(3,4-Dimethyl-benzylidene-hydrazinocarbonyl)-thiophen-2-yl]-3-(3-hydroxy-propylsulfanylmethyl)-benzamide] | < 3

Same assay, conditions: phosphate uptake, oocytes expressing rat NaPi-2b; 300 μM, determined from inhibition curve

Row | Compound | inhibition at 300 µM [%]
27 | CC(C)(C)c1cccc(/C=N/NC(=O)c2ccccc2NC(=O)c2ccccc2F)c1O [Compound 239, N-[2-(3-Tert-butyl-2-hydroxy-benzylidene-hydrazinocarbonyl)-phenyl]-2-fluoro-benzamide] | 59.1
28 | CCN(CC)Cc1cccc(C(=O)Nc2ccc(Cl)cc2C(=O)NOCc2ccccc2)c1 [Compound 1077] | 40.2
29 | Cc1cccc(/C=N/NC(=O)c2ccccc2NC(=O)c2cccnc2)c1 [Compound 131, N-[2-(3-Methyl-benzylidene-hydrazinocarbonyl)-phenyl]-nicotinamide] | 32.4
